Source: US20090264447A1, “Pyrimidine compounds for combating pathogenic fungi and cancer” (BASF SE, priority 2006, published 2009)

What follows are compounds tested on HeLa B cells (assay: Cell cycle inhibition in HeLa cells (FACS, G0/G1 to G2/M ratio)). Settings: read-out: IC50 (concentration at which 50% of the cells are inhibited in their cell cycle), 20 h incubation with compound.
Type: cell-based
Description: HeLa B cells were cultivated in DMEM (Life Technologies Cat. No. 21969-035) containing fetal calf serum (FCS, Life Technologies Cat. No. 10270-106) in 180 cm^2 containers at 37° C., 92% humidity and 7% CO2.
5×10^4 cells per well were added into a 24-well plate. After 20 h, the compounds to be tested were added such that the final concentration was 1×10^−6, 3.3×10^−7, 1.1×10^−7, 3.7×10^−8, 1.2×10^−8 and 1×10^−9 M in a final volume of 500 μl. 6 wells contained only DMSO as control. The treated cells were incubated as described above for a further 20 h. The cells were then examined under the microscope for dead cells. The 24-well plate was then centrifuged at 1200 rpm at 20° C., an acceleration in position 7 and the brake position 5 (Eppendorf centrifuge 5804R) for 5 min.
The supernatant was removed and the cells were lysed with 0.5 ml of RNase buffer (10 mM sodium citrate, 0.1% Nonidet NP40, 50 μg/ml RNase, 10 μg/ml propidium iodide) per well. The plates were then incubated at room temperature in the dark for at least 30 min, and the samples were then transferred into FACS tubes. These were measured in an FACS instrument (Beckton Dickinson) with the following settings:
Instrument settings at the FACS Calibur:
The ratio of cells in the G0/G1 phase to those in the G2/M phase was calculated and compared to the value for the control (DMSO).

Question: `CON=C(N)c1nc(Cl)c(-c2c(F)cc(OCCCN(C)C)cc2F)c(N2CCC(C)CC2)n1` [Example 2] was tested. Which IC50 did it give?
Answer: 27 nM

Question: How did the IC50 turn out when `COCCCOc1cc(F)c(-c2c(Cl)nc(C(N)=NOC)nc2NC(C)C(C)(C)C)c(F)c1` (stereo not drawn) [Example 7] was run?
Answer: 56 nM

Question: `CC1CCN(c2nc(-n3cccn3)nc(Cl)c2-c2c(F)cc(OCCCN(C)C(=O)OC(C)(C)C)cc2F)CC1` [Example 11] was tested. Which IC50 did it give?
Answer: 570 nM

Question: How did the IC50 turn out when `CC1CCN(c2nc(-n3cccn3)nc(Cl)c2-c2c(F)cc(OCCCOc3cc(Cl)ncn3)cc2F)CC1` [Example 12] was run?
Answer: 470 nM

Question: Which IC50 does the source give for `COCCCOc1cc(F)c(-c2c(Cl)nc(-n3cccn3)nc2NC(C)C(C)(C)C)c(F)c1` (stereo not drawn) [Example 15] here?
Answer: 32 nM

Question: With `COCCCOc1cc(F)c(-c2c(Cl)nc(-n3cccn3)nc2NC(C)C(C)C)c(F)c1` (stereo not drawn) [Example 16] as the compound, how does the IC50 read?
Answer: 26 nM

Question: How did the IC50 turn out when `COCCCOc1cc(F)c(-c2c(Cl)nc(-n3ccnn3)nc2NC(C)C(C)C)c(F)c1` (stereo not drawn) [Example 17] was run?
Answer: 32 nM

Question: For `COCCCOc1cc(F)c(-c2c(Cl)nc(-n3ccnn3)nc2NC(C)C(C)(C)C)c(F)c1` (stereo not drawn) [Example 18], which IC50 is on record?
Answer: 29 nM

Question: `COCCCOc1cc(F)c(-c2c(Cl)nc(-n3nccn3)nc2NC(C)C(C)C)c(F)c1` (stereo not drawn) [Example 19] was tested. Which IC50 did it give?
Answer: 26 nM

Question: Which IC50 does the source give for `COCCCOc1cc(F)c(-c2c(Cl)nc(-n3nccn3)nc2NC(C)C(C)(C)C)c(F)c1` (stereo not drawn) [Example 20] here?
Answer: 27 nM

Question: With `CNCCCOc1cc(F)c(-c2c(Cl)nc(-n3cncn3)nc2N2CCC(C)CC2)c(F)c1` [Example 21] as the compound, how does the IC50 read?
Answer: 18 nM

Question: `CC1CCN(c2nc(-n3cncn3)nc(Cl)c2-c2c(F)cc(OCCCN(C)C(=O)OC(C)(C)C)cc2F)CC1` [Example 22] was tested. Which IC50 did it give?
Answer: 290 nM

Question: With `CC1CCN(c2nc(-n3cncn3)nc(Cl)c2-c2c(F)cc(OCCCOc3cc(Cl)ncn3)cc2F)CC1` [Example 23] as the compound, how does the IC50 read?
Answer: 330 nM

Question: `COCCCOc1cc(F)c(-c2c(Cl)nc(-n3cncn3)nc2NC(C)C(C)(C)C)c(F)c1` (stereo not drawn) [Example 24] was tested. Which IC50 did it give?
Answer: 42 nM

Question: With `COCCCOc1cc(F)c(-c2c(Cl)nc(-n3cncn3)nc2NC(C)C(C)C)c(F)c1` (stereo not drawn) [Example 25] as the compound, how does the IC50 read?
Answer: 42 nM

Question: Which IC50 does the source give for `CC1CCN(c2nc(C#N)nc(Cl)c2-c2c(F)cc(OCCCN(C)C)cc2F)CC1` [Example 27] here?
Answer: 220 nM

Question: How did the IC50 turn out when `COCCCOc1cc(F)c(-c2c(Cl)nc(C#N)nc2N2CCC(C)CC2)c(F)c1` [Example 31] was run?
Answer: 120 nM

Question: For `CC1CCN(c2nc(C#N)nc(Cl)c2-c2c(F)cc(OCCCOc3cc(Cl)ncn3)cc2F)CC1` [Example 32], which IC50 is on record?
Answer: 570 nM

Question: Which IC50 does the source give for `CNCCCOc1cc(F)c(-c2c(Cl)nc(C#N)nc2N2CCCCCC2)c(F)c1` [Example 33] here?
Answer: 480 nM

Question: `COCCCOc1cc(F)c(-c2c(Cl)nc(C#N)nc2NC(C)C(C)(C)C)c(F)c1` (stereo not drawn) [Example 35] was tested. Which IC50 did it give?
Answer: 190 nM

Question: For `COCCCOc1cc(F)c(-c2c(Cl)nc(C#N)nc2NC(C)C(C)C)c(F)c1` (stereo not drawn) [Example 36], which IC50 is on record?
Answer: 59 nM

Question: Which IC50 does the source give for `CC(Nc1nc(C#N)nc(Cl)c1-c1c(F)cc(OCCCCl)cc1F)C(C)(C)C` (stereo not drawn) [Example 37] here?
Answer: 280 nM

Question: With `CC(C)C(C)Nc1nc(C#N)nc(Cl)c1-c1c(F)cc(OCCCCl)cc1F` (stereo not drawn) [Example 38] as the compound, how does the IC50 read?
Answer: 330 nM

Question: How did the IC50 turn out when `CNCCCOc1cc(F)c(-c2c(Cl)nc(C(=O)c3ccc(C)cc3)nc2N2CCCCCC2)c(F)c1` [Example 39] was run?
Answer: 580 nM
